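Grown in 96-well plates, cells were treated for 48 hours with each compound at five concentrations. Insufficient inhibition: endpoint recorded as highest concentration tested. The concentration for 50% growth inhibition is given as GI50.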 Activity calls are given as the source filed them. Cut-off read from the data, not from the text of the source: active = GI50 up to about 1.1 µM and inactive = higher.
Key:
Experiment in all cases: inhibition of tumour cell growth, NCI panel, 48 h
CAKI-1 = tested on: CAKI-1
CCRF-CEM = tested on: CCRF-CEM
HOP-92 = tested on: HOP-92
HT-29 = tested on: HT-29
KM-20L2 = tested on: KM-20L2
NCI-H23 = tested on: NCI-H23
NCI-H460 = tested on: NCI-H460
OVCAR-4 = tested on: OVCAR-4
OVCAR-5 = tested on: OVCAR-5
SF-268 = tested on: SF-268
SK-MEL-28 = tested on: SK-MEL-28
SN12C = tested on: SN12C
SNB-19 = tested on: SNB-19
UACC-257 = tested on: UACC-257
UO-31 = tested on: UO-31
RXF 393 = tested on: RXF 393
SF-295 = tested on: SF-295
TK-10 = tested on: TK-10

Measured: GI50

COc1ccc(/C=C\c2cc(OC)c(OC(C)=O)c(OC)c2)cc1
inactive: CAKI-1 25.1 µM | CCRF-CEM 5.46 µM | HOP-92 19.1 µM | HT-29 12.4 µM | KM-20L2 29.5 µM | NCI-H23 13.3 µM | NCI-H460 2.49 µM | OVCAR-4 26.4 µM | OVCAR-5 28.7 µM | SF-268 10.5 µM | SK-MEL-28 3.43 µM | SN12C 7.21 µM | SNB-19 7.24 µM | UACC-257 17.3 µM | UO-31 15.7 µM

CC(C)(C)NN=C1C(C)(C)C(=NNC(C)(C)C)C1(C)C
inactive: CAKI-1 > 100 µM | HOP-92 > 100 µM | HT-29 > 100 µM | KM-20L2 > 100 µM | NCI-H23 > 100 µM | NCI-H460 > 100 µM | OVCAR-4 > 100 µM | OVCAR-5 > 100 µM | RXF 393 > 100 µM | SF-268 > 100 µM | SF-295 > 100 µM | SK-MEL-28 > 100 µM | SN12C > 100 µM | SNB-19 > 100 µM | TK-10 > 100 µM | UACC-257 > 100 µM | UO-31 > 100 µM

Cc1cn(C2CC(n3cncn3)C(C(C)O)O2)c(=O)[nH]c1=O (centres undefined)
inactive: CCRF-CEM > 100 µM | HOP-92 > 100 µM | HT-29 > 100 µM | KM-20L2 > 100 µM | NCI-H23 > 100 µM | NCI-H460 > 100 µM | OVCAR-4 > 100 µM | OVCAR-5 > 100 µM | RXF 393 > 100 µM | SF-268 > 100 µM | SF-295 > 100 µM | SK-MEL-28 > 100 µM | SN12C > 100 µM | SNB-19 > 100 µM | TK-10 > 100 µM | UACC-257 > 100 µM | UO-31 > 100 µM

C=C(C)C1CCC2(C)CC1c1c(c(C)cc3c1[nH]c1ccccc13)O2 (centres undefined)
inactive: CCRF-CEM 24.3 µM | HOP-92 > 25 µM | HT-29 > 25 µM | KM-20L2 > 25 µM | NCI-H460 > 25 µM | OVCAR-4 11.7 µM | OVCAR-5 > 25 µM | SF-268 > 25 µM | SK-MEL-28 > 25 µM | SN12C > 25 µM | SNB-19 > 25 µM | UO-31 12.6 µM

C=CCC1([C@H](C)[C@@H](OC(C)=O)c2cc(OC)c(OC)c(OC)c2)C[C@@H](OC)CCC1=O (some centres undefined)
inactive: CAKI-1 70.8 µM | CCRF-CEM 3.3 µM | HOP-92 23 µM | HT-29 14.1 µM | KM-20L2 12 µM | NCI-H23 9.59 µM | NCI-H460 17.7 µM | OVCAR-4 25.5 µM | RXF 393 12.9 µM | SF-268 13.7 µM | SF-295 16 µM | SK-MEL-28 23.6 µM | SN12C 17.7 µM | TK-10 51.3 µM | UACC-257 > 10 µM

C/C(CN1C(=O)c2ccccc2C1=O)=N\NS(C)(=O)=O
inactive: CAKI-1 > 100 µM | CCRF-CEM > 100 µM | HT-29 > 100 µM | KM-20L2 > 100 µM | NCI-H23 > 100 µM | NCI-H460 > 100 µM | OVCAR-4 > 100 µM | OVCAR-5 > 100 µM | RXF 393 > 100 µM | SF-268 > 100 µM | SF-295 > 100 µM | SK-MEL-28 > 100 µM | SN12C > 100 µM | SNB-19 > 100 µM | TK-10 > 100 µM | UACC-257 > 100 µM | UO-31 > 100 µM

Brc1ccc2c(c1)C1(c3cc(Br)ccc3-2)c2cc(Br)ccc2-c2ccc(Br)cc21
inactive: CAKI-1 > 100 µM | CCRF-CEM > 100 µM | HT-29 > 100 µM | KM-20L2 > 100 µM | NCI-H23 > 100 µM | NCI-H460 > 100 µM | OVCAR-4 > 100 µM | OVCAR-5 > 100 µM | RXF 393 > 100 µM | SF-268 > 100 µM | SF-295 > 100 µM | SK-MEL-28 > 100 µM | SN12C > 100 µM | SNB-19 > 100 µM | TK-10 > 100 µM | UACC-257 > 100 µM | UO-31 > 100 µM

COC(=O)c1cc(Br)c(Br)n1C
inactive: CAKI-1 > 100 µM | CCRF-CEM > 100 µM | HOP-92 > 100 µM | HT-29 > 100 µM | KM-20L2 > 100 µM | NCI-H23 > 100 µM | OVCAR-4 > 100 µM | OVCAR-5 > 100 µM | RXF 393 > 100 µM | SF-268 > 100 µM | SF-295 > 100 µM | SK-MEL-28 > 100 µM | SN12C > 100 µM | SNB-19 > 100 µM | TK-10 > 100 µM | UACC-257 > 100 µM | UO-31 > 100 µM

CCOC(=O)C1S/C(=N\c2ccc(Cl)c(Cl)c2)N=C1C (centres undefined)
inactive: CAKI-1 35.1 µM | CCRF-CEM 13.2 µM | HT-29 19.7 µM | KM-20L2 20.9 µM | NCI-H23 36.7 µM | NCI-H460 49.8 µM | OVCAR-4 20.3 µM | OVCAR-5 44.1 µM | RXF 393 13 µM | SF-268 54.6 µM | SF-295 29.7 µM | SK-MEL-28 73.8 µM | SN12C 19.6 µM | SNB-19 45.6 µM | TK-10 76.7 µM | UACC-257 87.1 µM | UO-31 92.9 µM

Source: ChEMBL document CHEMBL1201862, “PubChem BioAssay data set” (2004)
